The target in one test is T1, human V1b receptor (Homo sapiens, UniProt P47901).
T1 sequence (P47901 1-424): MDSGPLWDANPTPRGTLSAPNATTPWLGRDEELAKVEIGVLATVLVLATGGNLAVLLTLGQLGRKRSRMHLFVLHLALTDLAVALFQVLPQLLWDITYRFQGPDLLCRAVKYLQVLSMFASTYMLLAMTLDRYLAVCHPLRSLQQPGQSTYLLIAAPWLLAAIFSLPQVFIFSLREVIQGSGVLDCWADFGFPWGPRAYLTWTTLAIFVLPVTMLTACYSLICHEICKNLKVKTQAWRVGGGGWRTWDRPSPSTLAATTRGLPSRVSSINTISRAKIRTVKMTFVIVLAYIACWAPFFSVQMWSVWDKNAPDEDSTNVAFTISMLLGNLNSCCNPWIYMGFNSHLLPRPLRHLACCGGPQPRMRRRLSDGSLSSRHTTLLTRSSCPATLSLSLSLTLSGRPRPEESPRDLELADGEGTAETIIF
Nature of the test: V1b binding assay (3H-AVP displacement, HEK-293 membranes). Also noted: expressed in transfected cells; host or cells: HEK-293 (membranes). Particulars: for inhibition at 1 µM: 1.0 μM compound, read-out: V1b@1.0, % Inh. The method in brief: (§1)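 Each well: membranes, test compound (from 10% DMSO working stock), 3H-AVP. Buffer pH 7.5 with 0.1% BSA and protease inhibitors; 1 h, room temperature. Non-specific binding: 1.25 μM AVP. Filter, wash, count.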

For the next test, the target named is T2, NPY2 receptors (Homo sapiens, UniProt P49146).
T2 construct: Cell Membranes from KAN-TS cells having NPY2 receptors; endogenous in cells; host or cells: KAN-TS cells (membranes)
T2 sequence (P49146 1-381): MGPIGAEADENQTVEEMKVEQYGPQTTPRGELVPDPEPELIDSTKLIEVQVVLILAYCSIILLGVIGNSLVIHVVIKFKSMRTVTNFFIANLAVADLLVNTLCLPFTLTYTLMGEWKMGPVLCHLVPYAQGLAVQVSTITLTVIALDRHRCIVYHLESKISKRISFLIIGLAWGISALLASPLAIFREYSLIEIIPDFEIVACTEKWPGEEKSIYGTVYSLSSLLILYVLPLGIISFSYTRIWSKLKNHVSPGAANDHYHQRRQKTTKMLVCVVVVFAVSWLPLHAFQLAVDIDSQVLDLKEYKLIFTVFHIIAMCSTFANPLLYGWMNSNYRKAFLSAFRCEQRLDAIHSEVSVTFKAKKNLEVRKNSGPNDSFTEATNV
In words: Neuropeptide Y receptor binding assay (125I-PYY, KAN-TS cell membranes). Particulars: 10 μM compound; read-out: NPY-2@10, % Inh. The method in brief: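 Membranes from KAN-TS cells competed with 125I-PYY in binding buffer containing BSA, test compound at 10 μM final, 1 hr at room temperature. Nonspecific binding defined with 1 μM PYY final. Tubes centrifuged, washed with PBS and bound radioactivity gamma-counted.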

Another test addresses human V2 receptor (Homo sapiens, UniProt P30518). Nature of the test: V2 binding assay (3H-AVP displacement, HEK-293 membranes). Also noted: expressed in transfected cells; host or cells: HEK-293 (membranes). Particulars: 1.0 μM compound; read-out: V2@1.0, % Inh. The method, boiled down: as §1
The target in a further test is human V1a receptor (Homo sapiens, UniProt P37288). Nature of the test: V1a binding assay (3H-AVP displacement, HEK-293 membranes). Also noted: expressed in transfected cells; host or cells: HEK-293 (membranes). The following applies: for inhibition at 1 µM: 1.0 μM compound, read-out: V1a@1.0, % Inh. The method in brief:
as §1

human V2 receptor, sequence (P30518 whole entry): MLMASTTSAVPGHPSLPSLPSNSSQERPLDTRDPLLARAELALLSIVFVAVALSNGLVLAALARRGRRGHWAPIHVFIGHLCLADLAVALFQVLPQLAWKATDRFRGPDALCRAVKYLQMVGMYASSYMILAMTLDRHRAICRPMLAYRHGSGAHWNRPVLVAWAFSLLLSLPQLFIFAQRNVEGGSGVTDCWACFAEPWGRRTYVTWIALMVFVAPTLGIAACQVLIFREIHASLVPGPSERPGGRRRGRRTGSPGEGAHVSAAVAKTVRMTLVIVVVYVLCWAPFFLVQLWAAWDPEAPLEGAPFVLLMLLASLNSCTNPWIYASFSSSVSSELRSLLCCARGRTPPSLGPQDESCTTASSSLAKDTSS
human V1a receptor, sequence (P37288 whole entry): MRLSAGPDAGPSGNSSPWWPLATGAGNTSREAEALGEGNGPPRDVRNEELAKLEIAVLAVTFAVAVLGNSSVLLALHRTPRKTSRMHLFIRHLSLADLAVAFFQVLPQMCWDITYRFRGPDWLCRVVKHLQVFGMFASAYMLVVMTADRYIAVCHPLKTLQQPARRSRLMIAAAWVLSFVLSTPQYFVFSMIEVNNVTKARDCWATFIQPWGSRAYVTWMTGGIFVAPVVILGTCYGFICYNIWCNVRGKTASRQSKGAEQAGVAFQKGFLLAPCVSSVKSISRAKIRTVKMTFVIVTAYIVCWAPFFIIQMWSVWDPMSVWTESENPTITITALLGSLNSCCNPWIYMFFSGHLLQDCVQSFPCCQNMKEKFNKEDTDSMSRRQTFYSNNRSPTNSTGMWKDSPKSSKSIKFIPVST

With `O=C(NC(c1ccccc1)c1ccccc1)N1CCC(n2c(=O)n(CCCN3CCCC3)c3ccccc32)CC1` [Compound 96, 1-[(N1-piperidinocarbonyldiphenylmethylamino)-4-yl]-3-(3-N-pyrrolidinylpropyl)-1,3-dihydrobenzimidazol-2-one], the inhibition at 1 µM was found to be 43% at human V1b receptor and 0% on human V2 receptor. The inhibition at 10 µM on NPY2 receptors worked out at 20%. On human V1a receptor, this molecule registered an IC50 of 79 nM.

As to `O=C(NC(c1ccccc1)c1ccccc1)N1CCC(n2c(=O)n(CCCN3CCCCC3)c3ccccc32)CC1` [Compound 97, 1-[(N1-piperidinocarbonylbiphenylmethylamino)-4-yl]-3-(3-N-piperidinylpropyl)-1,3-dihydrobenzimidazol-2-one], the inhibition at 1 µM is 35% on human V1b receptor and 0% on human V2 receptor. In addition, on NPY2 receptors, the inhibition at 10 µM stood at 14%. On human V1a receptor, this molecule gave an IC50 of 34 nM.

In the case of `CN(CCCn1c(=O)n(C2CCN(C(=S)NC(c3ccccc3)c3ccccc3)CC2)c2ccccc21)C1CCCCC1` [Compound 98, 1-[(N1-piperidinocarbothioylbiphenylmethylamino)-4-yl]-3-(3-N,N-methylcyclohexylaminopropyl)-1,3-dihydrobenzimidazol-2-one], the IC50 at human V1b receptor stood at 179 nM; at human V1a receptor it was 22 nM. Besides, the inhibition at 10 µM on NPY2 receptors stood at 85%. Moreover, the inhibition at 1 µM on human V2 receptor was determined as 0%.

On to `CC1CCN(CCCn2c(=O)n(C3CCN(C(=O)NC(c4ccccc4)c4ccccc4)CC3)c3ccccc32)CC1` [Compound 99, 1-[(N1-piperidinocarbonylbiphenylmethylamino)-4-yl]-3-(4-methylpiperidin-1-yl-propyl)-1,3-dihydrobenzimidazol-2-one], for which the inhibition at 1 µM worked out at 46% at human V1b receptor and 16% on human V2 receptor. Moreover, the inhibition at 10 µM on NPY2 receptors came to 29%. The molecule further showed an IC50 at human V1a receptor of 126 nM.

As for `CN1CCN(CCCn2c(=O)n(C3CCN(C(=O)NC(c4ccccc4)c4ccccc4)CC3)c3ccccc32)CC1` [Compound 100, 1-[(N1-piperidinocarbonylbiphenylmethylamino)-4-yl]-3-(3-N-(N-Methylpiperazino)propyl)-1,3-dihydrobenzimidazol-2-one], the inhibition at 1 µM came to 36% on human V1b receptor and 24% on human V2 receptor. Besides, the inhibition at 10 µM on NPY2 receptors stood at 6%. This molecule also had a half-maximal inhibitory concentration (IC50) at human V1a receptor of 283 nM.

`CC1CC(C)CN(CCCn2c(=O)n(C3CCN(C(=O)NC(c4ccccc4)c4ccccc4)CC3)c3ccccc32)C1` (centres unmarked) [Compound 101]: the values for the inhibition at 1 µM at human V1b receptor and on human V2 receptor were 43% and 0%, respectively. Besides, at NPY2 receptors, the inhibition at 10 µM amounted to 21%. The molecule also showed a 50% inhibitory concentration (IC50) at human V1a receptor of 14 nM.

On to `O=C(NC(c1ccccc1)c1ccccc1)N1CCC(n2c(=O)n(CCCN3CC=CC3)c3ccccc32)CC1` [Compound 102], for which the inhibition at 1 µM is 41% at human V1b receptor and 6% on human V2 receptor. At NPY2 receptors, the inhibition at 10 µM was 23%. The molecule also gave a 50% inhibitory concentration (IC50) on human V1a receptor of 123 nM.

Regarding `O=c1n(CCCCN2CCCC2)c2ccccc2n1C1CCN(C(=S)NC(c2ccccc2)c2ccccc2)CC1` [Compound 104], the inhibition at 1 µM was determined as 48% at human V1b receptor and 14% on human V2 receptor. Besides, the inhibition at 10 µM on NPY2 receptors amounted to 96%. The molecule further returned a half-inhibitory concentration (IC50) at human V1a receptor of 18 nM.

On to `O=c1n(CCCN2CCCCC2)c2ccccc2n1C1CCN(C(=S)NCc2ccccc2)CC1` [Compound 105, 1-[(N1-piperidinocarbothioylbenzylamino)-4-yl]-3-(3-N-piperidinylpropyl)-1,3-dihydrobenzimidazol-2-one], for which the inhibition at 1 µM at human V1b receptor came out at 30%; on human V2 receptor, 0%; on human V1a receptor, 58%. Also, the inhibition at 10 µM at NPY2 receptors worked out at 12%. At human V1a receptor, this molecule had an IC50 of 188 nM.

With `O=C(NCc1ccccc1)N1CCC(n2c(=O)n(CCCN3CCCCC3)c3ccccc32)CC1` [Compound 106, 1-[(N1-piperidinocarbonybenzylamino)-4-yl]-3-(3-N-piperidinylpropyl)-1,3-dihydrobenzimidazol-2-one], the results for the inhibition at 1 µM at human V1b receptor, at human V2 receptor and at human V1a receptor were 32%, 2% and 56%, respectively. For the same molecule, at NPY2 receptors, the inhibition at 10 µM turned out to be 0%.

Broadly, the IC50 is the point on the concentration scale where inhibition reaches its midpoint.

The values above are taken from patent US6653478B2, “Substituted benzimidazol-2-ones as vasopressin receptor antagonists and neuropeptide Y modulators” (Ortho-McNeil Pharmaceutical, Inc., priority 2000, dated 2003).
